Measurements published in US20230086303A1 (priority 2016, published 2023).
Converted amounts (≈) assume the structure as drawn. Starred links: 1 amine or outer side, 2 acyl side, 3 side chain; linkers in the order of their positions; H or OH if unused. Positions of bridges follow the written chain, without caps; N, C: chain ends. Non-standard residues stand in square brackets, D forms with d. Residues, ends and D or L forms follow the SMILES beside them. *: point of attachment. pTerphenylCO(4''-OnC5H11) = CCCCCOc1ccc(-c2ccc(-c3ccc(C(=O)*)cc3)cc2)cc1; Orn(4R-OH,5R-OH) = O=C([C@H](C[C@@H](O)[C@@H](O)N[*:3])N[*:1])[*:2]; hTyr(3S-OH,4S-OH) = N[C@H](C(=O)O)[C@H](O)[C@@H](O)c1ccc(O)cc1; Pro(3S-OH,4S-Me) = C[C@H]1CN[C@H](C(=O)O)[C@H]1O; Hyp = O=C(O)[C@@H]1C[C@@H](O)CN1

Experiment: not given
Conditions: in vivo; cited from earlier work

Row | SMILES | half-life
1 | CO[C@H]1C[C@@H]2CC[C@@H](C)[C@@](O)(O2)C(=O)C(=O)N2CCCC[C@H]2C(=O)O[C@H]([C@H](C)C[C@@H]2CC[C@@H](O)[C@H](OC)C2)CC(=O)[C@H](C)/C=C(\C)[C@@H](O)[C@@H](OC)C(=O)[C@H](C)C[C@H](C)/C=C/C=C/C=C/1C [sirolimus] | greater than 48 hours
2 | CCC1(c2ccccc2)C(=O)NC(=O)NC1=O [phenobarbital] | greater than 48 hours
3 | O=C1CN=C(c2ccccc2Cl)c2cc([N+](=O)[O-])ccc2N1 [clonazepam] | greater than 48 hours
4 | CCC1(c2ccccc2)C(=O)NC(=O)N(C)C1=O (stereo not shown) [mephobarbital] | greater than 48 hours
5 | CCCCCOc1ccc(-c2ccc(-c3ccc(C(=O)N[C@H]4C[C@@H](O)[C@@H](O)NC(=O)[C@@H]5[C@@H](O)[C@@H](C)CN5C(=O)[C@H]([C@@H](C)O)NC(=O)[C@H]([C@H](O)[C@@H](O)c5ccc(O)cc5)NC(=O)[C@@H]5C[C@@H](O)CN5C(=O)[C@H]([C@@H](C)O)NC4=O)cc3)cc2)cc1 [anidulafungin] ({pTerphenylCO(4''-OnC5H11)}-[Orn(4R-OH,5R-OH)]T[Hyp][hTyr(3S-OH,4S-OH)]T[Pro(3S-OH,4S-Me)]; lactam 1-C) | greater than 48 hours
6 | C[C@@H]1[C@H](O)[C@@H](C)/C=C/C=C/C=C/C=C/C=C/C=C/C=C/[C@H](O[C@@H]2O[C@H](C)[C@@H](O)[C@H](N)[C@@H]2O)C[C@@H]2O[C@](O)(C[C@@H](O)C[C@@H](O)[C@H](O)CC[C@@H](O)C[C@@H](O)CC(=O)O[C@H]1C)C[C@H](O)[C@H]2C(=O)O [amphotericin] | greater than 48 hours
7 | NC(=O)N1c2ccccc2C=Cc2ccccc21 [carbamazepine] | greater than 48 hours
8 | CCCCCCCCc1ccc(CCC(N)(CO)CO)cc1 [fingolimod] | greater than 48 hours
9 | CNCCC=C1c2ccccc2CCc2ccccc21 [nortriptyline] | greater than 48 hours
10 | Cc1cc2c(s1)Nc1ccccc1N=C2N1CCN(C)CC1 [olanzapine] | greater than 48 hours

Experiment: not given
Conditions: cited from earlier work

Row | SMILES | water solubility
11 | C[C@]12CC3C[C@](C)(C1)C[C@@](N)(C3)C2 [free base of memantine, 3,5-dimethyladamantan-1-amine] | 900 µg/mL (≈ 5.02 mM)

Experiment: Gastrointestinal related adverse events in clinical study
Conditions: 10 mg/day donepezil administered transdermally versus orally
Protocol: The number of subjects with treatment related adverse events is assessed daily during the 36 day confinement period and for 7 visits over a 21 day wash-out period. Assessment of local skin irritation in the subjects of Arm 1 will also be assessed daily during the 36 day confinement period and for 7 visits over a 21 day wash-out period. Skin irritation is assessed using an 8 point categorical scale of no irritation; minimal erythema, barely perceptible; definite erythema readily visible; minimal edema or minimal popular response; erythema and papules; definite edema; erythema, edema and papules; vesicular eruption; strong reaction, spreading beyond application site.

Row | SMILES | number of subjects experiencing diarrhea, transdermally versus orally | number of subjects experiencing nausea, transdermally versus orally
12 | COc1cc2c(cc1OC)C(=O)C(CC1CCN(Cc3ccccc3)CC1)C2 (stereo not shown) [donepezil] | two-fold lower | four-fold lower
